Laboratory results: US20240239781A1, “1H-PYRAZOLE DERIVATIVES AS SIGMA LIGANDS” (ACONDICIONAMIENTO TARRASENSE, priority 2021, published 2024)

Legend:
human σ2/TMEM97 receptor = biological target: T1, human σ2/TMEM97 receptor (Homo sapiens, UniProt Q5BJF2); assay: Binding assay to human σ2/TMEM97 receptor ([3H]-DTG, transfected HEK-293 membranes); conditions: class scale, read-out: Binding σ-2 Ki
T1 construct: expressed in transfected cells; host or cells: HEK-293
Protocol: Transfected HEK-293 membranes (15 μg) were incubated with 10 nM [^3H]-1,3-Di-o-tolylguanidine (DTG) in assay buffer containing Tris-HCl 50 mM at pH 8.0. NSB (non-specific binding) was measured by adding 10 μM haloperidol. The binding of the test compound was measured at either one concentration (% inhibition at 1 or 10 μM) or five different concentrations to determine affinity values (Ki). Plates were incubated at 25° C. for 120 minutes. After the incubation period, the reaction mix was transferred to MultiScreen HTS, FC plates (Millipore), filtered and washed 3 times with ice-cold 10 mM Tris-HCL (pH 8.0). Filters were dried and counted at approximately 40% efficiency in a MicroBeta scintillation counter (Perkin-Elmer) using EcoScint liquid scintillation cocktail.

human σ1 receptor = biological target: T2, human σ1 receptor (Homo sapiens, UniProt Q99720); assay: Human σ1 receptor radioligand assay ([3H](+)-pentazocine, transfected HEK-293 membranes); conditions: class scale, read-out: Binding σ-1 Ki
T2 construct: expressed in transfected cells; host or cells: HEK-293
Protocol: Transfected HEK-293 membranes (7 μg) were incubated with 5 nM of [^3H](+)-pentazocine in assay buffer containing Tris-HCl 50 mM at pH 8. NBS (non-specific binding) was measured by adding 10 μM haloperidol. The binding of the test compound was measured at either one concentration (% inhibition at 1 or 10 μM) or five different concentrations to determine affinity values (Ki). Plates were incubated at 37° C. for 120 minutes. After the incubation period, the reaction mix was then transferred to MultiScreen HTS, FC plates (Millipore), filtered and plates were washed 3 times with ice-cold 10 mM Tris-HCL (pH7.4). Filters were dried and counted at approximately 40% efficiency in a MicroBeta scintillation counter (Perkin-Elmer) using EcoScint liquid scintillation cocktail.

T1 sequence (Q5BJF2 whole entry): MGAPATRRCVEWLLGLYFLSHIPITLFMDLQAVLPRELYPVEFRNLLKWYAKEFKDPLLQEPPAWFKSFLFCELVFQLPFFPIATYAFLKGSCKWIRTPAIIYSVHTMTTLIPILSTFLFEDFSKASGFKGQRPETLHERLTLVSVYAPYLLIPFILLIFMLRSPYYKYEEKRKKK
T2 sequence (Q99720 whole entry): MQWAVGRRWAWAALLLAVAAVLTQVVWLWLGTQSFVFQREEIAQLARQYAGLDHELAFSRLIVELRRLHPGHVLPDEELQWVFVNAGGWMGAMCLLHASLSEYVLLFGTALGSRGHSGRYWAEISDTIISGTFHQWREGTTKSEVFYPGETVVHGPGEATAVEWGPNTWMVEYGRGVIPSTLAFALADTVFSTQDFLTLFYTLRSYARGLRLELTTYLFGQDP

Compound	Ki (human σ2/TMEM97 receptor) [nM]	Ki (human σ1 receptor) [nM]
Cc1cc(-c2nn(C)c(Cl)c2CN2CCC(CNCCC(C)(C)C)C2)no1 (stereo not drawn) [Example 1, N-((1-((5-Chloro-1-methyl-3-(5-methylisoxazol-3-yl)-1H-pyrazol-4-yl)methyl)pyrrolidin-3-yl)methyl)-3,3-dimethylbutan-1-amine]	> 1000	100 to 500
Cc1cc(-c2nn(C)c(Cl)c2CN2CCCCC(NCCC(C)C)C2)no1 (stereo not drawn) [Example 2, 1-((5-Chloro-1-methyl-3-(5-methylisoxazol-3-yl)-1H-pyrazol-4-yl)methyl)-N-isopentylazepan-3-amine]	> 1000	500 to 1000
Cc1cc(-c2nn(C)c(Cl)c2CN2CCC[C@@H](NCCC(C)C)C2)no1 [Example 5, (R)-1-((5-Chloro-1-methyl-3-(5-methylisoxazol-3-yl)-1H-pyrazol-4-yl)methyl)-N-isopentylpiperidin-3-amine]	100 to 500	500 to 1000
Cc1cc(-c2nn(C)c(Cl)c2CN2CCC[C@H](NCCC(C)C)C2)no1 [Example 6, (S)-1-((5-Chloro-1-methyl-3-(5-methylisoxazol-3-yl)-1H-pyrazol-4-yl)methyl)-N-isopentylpiperidin-3-amine]	> 1000	100 to 500
Cc1cc(-c2nn(C)c(Cl)c2CN2CCC[C@H](NCCc3ccccc3)C2)no1 [Example 7, (S)-1-((5-Chloro-1-methyl-3-(5-methylisoxazol-3-yl)-1H-pyrazol-4-yl)methyl)-N-phenethylpiperidin-3-amine]	> 1000	100 to 500
Cc1cc(-c2nn(C)c(Cl)c2CN2CCCCC(NCCC(C)(C)C)C2)no1 (stereo not drawn) [Example 8, 1-((5-Chloro-1-methyl-3-(5-methylisoxazol-3-yl)-1H-pyrazol-4-yl)methyl)-N-(3,3-dimethylbutyl)azepan-3-amine]	500 to 1000	100 to 500
Cc1cc(-c2nn(C)c(Cl)c2CN2CCCC[C@@H](NCCC(C)C)C2)no1 [Example 10, (R)-1-((5-Chloro-1-methyl-3-(5-methylisoxazol-3-yl)-1H-pyrazol-4-yl)methyl)-N-isopentylazepan-3-amine]	100 to 500	100 to 500
Cc1cc(-c2nn(C)c(Cl)c2CN2CCC(NCCC(C)(C)C)C2)no1 (stereo not drawn) [Example 13, 1-((5-Chloro-1-methyl-3-(5-methylisoxazol-3-yl)-1H-pyrazol-4-yl)methyl)-N-(3,3-dimethylbutyl)pyrrolidin-3-amine]	100 to 500	100 to 500
CC(C)c1cc(-c2nn(C)c(Cl)c2CN2CCCCC(NCCC(C)(C)C)C2)no1 (stereo not drawn) [Example 15, 1-((5-Chloro-3-(5-isopropylisoxazol-3-yl)-1-methyl-1H-pyrazol-4-yl)methyl)-N-(3,3-dimethylbutyl)azepan-3-amine]	> 1000	100 to 500
CC(C)CCNC1CCCCN(Cc2c(-c3cc(C(C)C)on3)nn(C)c2Cl)C1 (stereo not drawn) [Example 17, 1-((5-Chloro-3-(5-isopropylisoxazol-3-yl)-1-methyl-1H-pyrazol-4-yl)methyl)-N-isopentylazepan-3-amine]	> 1000	100 to 500
CCc1cc(-c2nn(C)c(Cl)c2CN2CCCCC(NCCC(C)C)C2)no1 (stereo not drawn) [Example 21, 1-((5-Chloro-3-(5-ethylisoxazol-3-yl)-1-methyl-1H-pyrazol-4-yl)methyl)-N-isopentylazepan-3-amine]	100 to 500	500 to 1000
Cc1cc(-c2nn(C)c(Cl)c2CN2CCCC(NCCC(C)(C)C)CC2)no1 (stereo not drawn) [Example 23, 1-((5-Chloro-1-methyl-3-(5-methylisoxazol-3-yl)-1H-pyrazol-4-yl)methyl)-N-(3,3-dimethylbutyl)azepan-4-amine]	< 100	100 to 500
Cc1cc(-c2nn(C)c(Cl)c2CN2CCCC(NCCC(C)C)CC2)no1 (stereo not drawn) [Example 24, 1-((5-Chloro-1-methyl-3-(5-methylisoxazol-3-yl)-1H-pyrazol-4-yl)methyl)-N-isopentylazepan-4-amine]	< 100	> 1000
Cc1conc1-c1nn(C)c(Cl)c1CN1CCCCC(NCCC(C)C)C1 (stereo not drawn) [Example 28, 1-((5-Chloro-1-methyl-3-(4-methylisoxazol-3-yl)-1H-pyrazol-4-yl)methyl)-N-isopentylazepan-3-amine]	100 to 500	100 to 500
Cc1cc(-c2nn(C)c(Cl)c2CN2CCC(CNCCC(C)C)C2)no1 (stereo not drawn) [Example 29, N-((1-((5-Chloro-1-methyl-3-(5-methylisoxazol-3-yl)-1H-pyrazol-4-yl)methyl)pyrrolidin-3-yl)methyl)-3-methylbutan-1-amine]	100 to 500	500 to 1000
Cn1nc(-c2cccnc2)c(CN2CCCCC(NCCC(C)(C)C)C2)c1Cl (stereo not drawn) [Example 30, 1-((5-Chloro-1-methyl-3-(pyridin-3-yl)-1H-pyrazol-4-yl)methyl)-N-(3,3-dimethylbutyl)azepan-3-amine]	> 1000	100 to 500

The remaining lines, values ahead:

Ki (human σ2/TMEM97 receptor) [nM]	Ki (human σ1 receptor) [nM]	Compound
> 1000	500 to 1000	Cc1cc(-c2nn(C)c(Cl)c2CN2CCCCC(NCCc3ccccc3)C2)no1 (stereo not drawn) [Example 3, 1-((5-Chloro-1-methyl-3-(5-methylisoxazol-3-yl)-1H-pyrazol-4-yl)methyl)-N-phenethylazepan-3-amine]
500 to 1000	> 1000	Cc1cc(-c2nn(C)c(Cl)c2CN2CCCCC(NCC3CCOCC3)C2)no1 (stereo not drawn) [Example 4, 1-((5-Chloro-1-methyl-3-(5-methylisoxazol-3-yl)-1H-pyrazol-4-yl)methyl)-N-((tetrahydro-2H-pyran-4-yl)methyl)azepan-3-amine]
500 to 1000	> 1000	CCCCNC1CCCCN(Cc2c(-c3cc(C)on3)nn(C)c2Cl)C1 (stereo not drawn) [Example 9, N-Butyl-1-((5-chloro-1-methyl-3-(5-methylisoxazol-3-yl)-1H-pyrazol-4-yl)methyl)azepan-3-amine]
100 to 500	500 to 1000	Cc1cc(-c2nn(C)c(Cl)c2CN2CCC(NCCC(C)C)C2)no1 (stereo not drawn) [Example 11, 1-((5-Chloro-1-methyl-3-(5-methylisoxazol-3-yl)-1H-pyrazol-4-yl)methyl)-N-isopentylpyrrolidin-3-amine]
> 1000	100 to 500	Cc1cc(-c2nn(C)c(Cl)c2CN2CCCC[C@H](NCCC(C)C)C2)no1 [Example 12, (S)-1-((5-Chloro-1-methyl-3-(5-methylisoxazol-3-yl)-1H-pyrazol-4-yl)methyl)-N-isopentylazepan-3-amine]
> 1000	100 to 500	CCn1nc(-c2cc(C)on2)c(CN2CCCCC(NCCC(C)C)C2)c1Cl (stereo not drawn) [Example 14, 1-((5-Chloro-1-ethyl-3-(5-methylisoxazol-3-yl)-1H-pyrazol-4-yl)methyl)-N-isopentylazepan-3-amine]
> 1000	100 to 500	Cn1nc(-c2cc(C3CC3)on2)c(CN2CCCCC(NCCC(C)(C)C)C2)c1Cl (stereo not drawn) [Example 16, 1-((5-Chloro-3-(5-cyclopropylisoxazol-3-yl)-1-methyl-1H-pyrazol-4-yl)methyl)-N-(3,3-dimethylbutyl)azepan-3-amine]
> 1000	100 to 500	Cc1cc(-c2nn(-c3ccccc3)c(Cl)c2CN2CCCCC(NCCC(C)C)C2)no1 (stereo not drawn) [Example 18, 1-((5-Chloro-3-(5-methylisoxazol-3-yl)-1-phenyl-1H-pyrazol-4-yl)methyl)-N-isopentylazepan-3-amine]
> 1000	500 to 1000	CC(C)CCNC1CCCCN(Cc2c(-c3cc(C4CC4)on3)nn(C)c2Cl)C1 (stereo not drawn) [Example 19, 1-((5-Chloro-3-(5-cyclopropylisoxazol-3-yl)-1-methyl-1H-pyrazol-4-yl)methyl)-N-isopentylazepan-3-amine]
100 to 500	100 to 500	CCc1cc(-c2nn(C)c(Cl)c2CN2CCCCC(NCCC(C)(C)C)C2)no1 (stereo not drawn) [Example 20, 1-((5-Chloro-3-(5-ethylisoxazol-3-yl)-1-methyl-1H-pyrazol-4-yl)methyl)-N-(3,3-dimethylbutyl)azepan-3-amine]
100 to 500	100 to 500	CCn1nc(-c2cc(C)on2)c(CN2CCCCC(NCCC(C)(C)C)C2)c1Cl (stereo not drawn) [Example 22, 1-((5-Chloro-1-ethyl-3-(5-methylisoxazol-3-yl)-1H-pyrazol-4-yl)methyl)-N-(3,3-dimethylbutyl)azepan-3-amine]
> 1000	< 100	Cn1nc(-c2ccccn2)c(CN2CCCCC(NCCC(C)(C)C)C2)c1Cl (stereo not drawn) [Example 25, 1-((5-Chloro-1-methyl-3-(pyridin-2-yl)-1H-pyrazol-4-yl)methyl)-N-(3,3-dimethylbutyl)azepan-3-amine]
> 1000	500 to 1000	CC(C)CCNC1CCCCN(Cc2c(-c3ccccn3)nn(C)c2Cl)C1 (stereo not drawn) [Example 26, 1-((5-Chloro-1-methyl-3-(pyridin-2-yl)-1H-pyrazol-4-yl)methyl)-N-isopentylazepan-3-amine]
< 100	100 to 500	Cc1conc1-c1nn(C)c(Cl)c1CN1CCCCC(NCCC(C)(C)C)C1 (stereo not drawn) [Example 27, 1-((5-Chloro-1-methyl-3-(4-methylisoxazol-3-yl)-1H-pyrazol-4-yl)methyl)-N-(3,3-dimethylbutyl)azepan-3-amine]
